Laboratory results: publication PMC9962735, “Synthesis and Cytotoxic Activity of the Derivatives of N-(Purin-6-yl)aminopolymethylene Carboxylic Acids and Related Compounds” (Molecules, 2023)

What was measured:
[1] = system: A549, SK-BR-3, SNU-1, Jurkat, WI-38 cell lines; test: MTT cytotoxicity assay, cell line panel (result in words); format: cell-based, human; conditions: 72 h
Excerpt: (§1) The cytotoxicity of the test compounds was studied using the MTT assay against a number of cell lines: CT-26 murine colon carcinoma, 4T1 murine mammary carcinoma, MDA-MB-231 human breast adenocarcinoma, COLO201 human colorectal adenocarcinoma, HepG2 human hepatocellular carcinoma, A549 human non-small-cell lung carcinoma, SK-BR-3 human breast adenocarcinoma, SNU-1 human gastric carcinoma, Jurkat human acute T-lymphoblastic leukemia, and WI-38 human lung fibroblasts (normal cells). Doxorubicin (Dox) was used as a reference drug. Cells were incubated with test compounds for 72 h.
The cytotoxicity of compounds 2a–c, 6, 7, and 9 was also studied using the MTT assay against a number of tumor cell lines: A549, SK-BR-3, SNU-1, Jurkat, as well as normal fibroblasts WI-38 (Table 3).
(§2) Cells were seeded in flat-bottomed 96-well plates at 10,000 cells per well (for A549, SNU-1, WI-38, CT-26, MDA-MB-231, 4T1, and HepG2 cells) or 20,000 cells per well (for SK-BR-3, Jurkat, and COLO201 cells) and cultivated in complete culture mediums (for composition of each medium, see the Supplementary Materials, Table S1) in a CO2 incubator at 37 °C. At the first stage of this study, the test compounds dissolved in DMSO were added to the wells with cells at final concentrations from 1 × 10^–4 to 1 × 10^–10 mol/L (A549, SK-BR-3, SNU-1, Jurkat, and WI-38) or 1 × 10^–3 to 1 × 10^–8 mol/L (CT-26, MDA-MB-231, 4T1, COLO201, and HepG2); DMSO concentration in the wells was finally 1%. A complete cultural medium and DMSO were added to the control wells at the same concentration as in the experimental wells; 0.1% Triton X-100 solution (10 µL) was added to the corresponding wells as a non-specific positive control. After adding the test compounds, the cells were incubated for 72 h in an atmosphere containing 5% CO2. After that, the nutrient medium was removed from each well (in the case of SK-BR-3, Jurkat, and COLO201, plates were pre-centrifuged at 1500 rpm for 6 min). A solution of the commercial anticancer agent Doxorubicin (Dox, Sigma-Aldrich, St. Louis, MO, USA) in DMSO was used as a reference drug. Then, 150 µL of a complete medium with the MTT reagent (PanEco, Moscow, Russia) at a concentration of 0.5 mg/mL was added and incubated for 2 h. Formazan crystals were dissolved in DMSO (200 µL) and the absorbance in the wells was measured at 540 nm and a reference wavelength of 650 nm (Sunrise, Tecan, Groding, Austria). Experiments were performed in three parallel runs. Cell viability after incubation in the presence of test compounds was calculated in relation to cell viability in the control wells according to the Formula (1):Cell viability (%) = (Aexp/Ac) × 100,(1) where Aexp is the optical density of solutions in the wells containing test compounds; Ac is the optical density of solutions in control wells without test compounds. For detailed information on cell viability of various cell lines, see the Supplementary Materials, Figures S21–S26.
(§3) At the second stage of this study, in order to more accurately calculate the CC50 (the half maximal inhibitory concentration), the cytotoxic effect of test compounds was evaluated at concentrations close to CC50 found at the first stage. The study of the cytotoxic activity of each substance towards the cells of each line was carried out in triplicate; the mean value was used to calculate CC50. The CC50 values were determined by non-linear regression analysis using Graph-Pad Prism7.

[2] = system: SK-BR-3 human breast adenocarcinoma; test: MTT cytotoxicity assay, SK-BR-3; format: cell-based; conditions: Homo sapiens, SK-BR-3, 72 h, SK-BR-3, 72 h incubation, MTT, n = 3 (Table 3)
Excerpt: as §1, §2, §3

[3] = system: Jurkat human acute T-lymphoblastic leukemia; test: MTT cytotoxicity assay, Jurkat; format: cell-based; conditions: Homo sapiens, Jurkat, 72 h, 72 h incubation, MTT, n = 3 (Table 3)
Excerpt: as §1, §2, §3

[4] = system: A549 human non-small-cell lung carcinoma; test: MTT cytotoxicity assay, A549; format: cell-based; conditions: Homo sapiens, A549, 72 h, A549, 72 h incubation, MTT, n = 3 (Table 3)
Excerpt: as §1, §2, §3

[5] = MTT cytotoxicity assay, WI-38 normal cells; format: cell-based; conditions: human, WI-38 lung fibroblasts (normal cells), WI-38, 72 h incubation, MTT, n = 3 (Table 3)
Excerpt: as §1, §2, §3

[6] = system: SNU-1 human gastric carcinoma; test: MTT cytotoxicity assay, SNU-1; format: cell-based; conditions: Homo sapiens, SNU1, 72 h, SNU-1, 72 h incubation, MTT, n = 3 (Table 3)
Excerpt: as §1, §2, §3

[7] = MTT cytotoxicity assay, Jurkat; format: cell-based, human; conditions: human, CC50 of WI-38 divided by CC50 of Jurkat (Table 3); read-out: SCI (selective cytotoxicity index)
Excerpt: as §1, §2, §3

[8] = MTT cytotoxicity assay, SK-BR-3; format: cell-based, human; conditions: human, CC50 of WI-38 divided by CC50 of SK-BR-3 (Table 3); read-out: SCI (selective cytotoxicity index)
Excerpt: as §1, §2, §3

[9] = MTT cytotoxicity assay, A549; format: cell-based, human; conditions: human, CC50 of WI-38 divided by CC50 of A549 (Table 3); read-out: SCI (selective cytotoxicity index)
Excerpt: as §1, §2, §3

[10] = MTT cytotoxicity assay, SNU-1; format: cell-based, human; conditions: human, CC50 of WI-38 divided by CC50 of SNU-1 (Table 3); read-out: SCI (selective cytotoxicity index)
Excerpt: as §1, §2, §3

| SMILES | melting point [°C] | cytotoxic activity (in words) [1] | CC50 [2] [µM] | CC50 [3] [µM] | CC50 [4] [µM] | CC50 at 72 h [5] [µM] | CC50 [6] [µM] | selectivity ratio at 72 h [7] | selectivity ratio at 72 h [8] | selectivity ratio at 72 h [9] | selectivity ratio at 72 h [10] |
| --- | --- | --- | --- | --- | --- | --- | --- | --- | --- | --- | --- |
| C[C@H]1COc2c(ccc(F)c2F)N1C(=O)CCCCCCCCC(=O)N1c2ccc(F)c(F)c2OC[C@@H]1C (hydrate or solvate) [(S)-9, 1,10-bis((S)-7,8-Difluoro-3-methyl-2H-benzo[b][1,4]oxazin-4(3H)-yl)decan-1,10-dione] | 41 to 42 | – | – | – | – | – | – | – | – | – | – |
| CC1COc2c(ccc(F)c2F)N1C(=O)CCCCCCCCC(=O)N1c2ccc(F)c(F)c2OCC1C (stereo not drawn) (hydrate or solvate) [Compound 9, 1,10-bis(-7,8-Difluoro-3-methyl-2H-benzo[b][1,4]oxazin-4(3H)-yl)decan-1,10-dione] | 103 to 104 | – | – | – | – | – | – | – | – | – | – |
| C[C@H]1COc2c(ccc(F)c2F)N1C(=O)CCCCCCCCC(=O)N1c2ccc(F)c(F)c2OC[C@@H]1C [(S)-9, 1,10-bis((S)-7,8-Difluoro-3-methyl-2H-benzo[b][1,4]oxazin-4(3H)-yl)decan-1,10-dione] | – | did not exhibit cytotoxic activity | > 100 | > 100 | > 100 | > 100 | > 100 | – | – | – | – |
| CC1COc2c(ccc(F)c2F)N1C(=O)CNc1ncnc2[nH]cnc12 (stereo not drawn) [Compound 1a] | – | non-cytotoxic | > 100 | > 100 | > 100 | > 100 | > 100 | – | – | – | – |
| O=C(O)CCCCCCCCCCNc1ncnc2nc[nH]c12 [Compound 2a, N-(Purin-6-yl)-11-aminoundecanoic Acid] | 172 to 174 | cytotoxic only against the Jurkat cell line | > 100 | 59 | > 100 | > 100 | > 100 | ≥ 1.7 | – | – | – |
| O=C(O)CCCCCCCCCCCNc1ncnc2nc[nH]c12 [Compound 2b, N-(Purin-6-yl)-12-aminododecanoic Acid] | – | cytotoxic only against the Jurkat cell line | > 100 | 49 | > 100 | > 100 | > 100 | – | – | – | – |
| O=C(O)CCCCCCCCCCCCCCNc1ncnc2nc[nH]c12 [Compound 2c, N-(Purin-6-yl)-15-aminopentadecanoic Acid] | 198 to 199 | no cytotoxic activity | > 100 | > 100 | > 100 | > 100 | > 100 | – | – | – | – |
| CC(=O)OCCOCn1cnc2c(NCCCCCCCCCCC(=O)N3c4ccc(F)c(F)c4OCC3C)ncnc21 (stereo not drawn) [Compound 6, {11-[9-(2-Acetoxyethoxy)methylpurin-6-yl]aminoundecanoyl]-7,8-difluoro-3,4-dihydro-3-methyl-2H-[1,4]benzoxazine] | – | approximately the same cytotoxicity as the most active compound 1d | 370 | 10 | 15 | 30 | 5.6 | 3 | 0.08 | 2 | 5.4 |
| CC1COc2c(ccc(F)c2F)N1C(=O)CCCCCCCCC(=O)N1c2ccc(F)c(F)c2OCC1C (stereo not drawn) [Compound 9, 1,10-bis(-7,8-Difluoro-3-methyl-2H-benzo[b][1,4]oxazin-4(3H)-yl)decan-1,10-dione] | – | did not exhibit cytotoxic activity | > 100 | > 100 | > 100 | > 100 | > 100 | – | – | – | – |
| COc1cccc2c1C(=O)c1c(O)c3c(c(O)c1C2=O)C[C@@](O)(C(=O)CO)C[C@@H]3O[C@H]1C[C@H](N)[C@H](O)[C@H](C)O1 [Dox, Doxorubicin, reference compound] | – | – | 1.5 | 0.12 | 0.22 | 0.23 | 0.14 | 1.9 | 0.15 | 1 | 1.6 |
